Patent publication US20140163095A1, “USE OF ERIBULIN IN THE TREATMENT OF BREAST CANCER” (priority 2012, published 2014)

Test system: locally advanced or metastatic breast cancer
Assay: Phase III clinical trial comparing eribulin mesylate and capecitabine
[1] = of patients with any new metastasis

Description: A global, randomized, open-label, two-parallel-arm, phase III clinical trial of eribulin (eribulin mesylate) and capecitabine was performed.
This study randomized 1102 patients who had up to three prior chemotherapy regimens, and no more than two prior regimens for advanced and/or metastatic disease. The prior regimens must have included an anthracycline and a taxane, either in the (neo) adjuvant setting or for locally advanced or metastatic disease. Patients must have had documented evidence of progression during or after their most recent anti-cancer therapy. […] Patients were randomized to receive either eribulin mesylate as an intravenous (IV) infusion of 1.4 mg/m^2 over 2-5 minutes on days 1 and 8 every 21 days or capecitabine as an oral administration of 2.5 g/m^2/day administered twice daily in two equal doses on days 1 to 14 every 21 days.
This study was designed to have co-primary endpoints, overall survival (OS) and progression free survival (PFS), with alpha spending 0.04 and 0.01, respectively.
Progression events (disease progression determined by Response Evaluation Criteria in Solid Tumors [RECIST, version 1.0]) were categorized as: (i) emergence of a new lesion/metastasis, defined here as a lesion identified at progression that had not been previously reported, (ii) increase in size of an existing (previously reported) lesion (target or non-target), and (iii) other PFS event, e.g., death, clinical progression, or censoring. Investigator review of disease progression was used as the primary analysis for these investigations. Where progression was determined by investigator review, no further scans were performed, leading to informative censoring of independent review data (approximately 20%). The number of new metastases observed by independent review was considered an under-estimate due to this considerable informative censoring. OS and PFS were compared between treatment arms using two-sided, stratified (geographic region and HER2 status) log-rank tests. The correlation between progression events and OS was investigated by Cox regression, incorporating the event as a time-dependent covariate. New metastasis-free survival, defined as time from randomization to death or progression due to appearance of a new metastasis (whichever occurs earlier), was also analyzed.

CCCCCOC(=O)Nc1nc(=O)n([C@@H]2O[C@H](C)[C@@H](O)[C@H]2O)cc1F [Capecitabine, reference compound]
median overall survival (OS) (all randomized patients): 14.5 months
median progression-free survival (PFS) (all randomized patients): 4.2 months
New metastasis site: Bone, patients (count): 62
New metastasis site: Breast, patients (count): 13
New metastasis site: CNS (brain/spine), patients (count): 25
New metastasis site: Chest wall, patients (count): 5
New metastasis site: Liver, patients (count): 74
New metastasis site: Lung, patients (count): 76
New metastasis site: Lymph nodes, patients (count): 55
New metastasis site: Other, patients (count): 53
New metastasis site: Skin, patients (count): 26
Number of patients with any new metastasis observed (count, investigator review, intent-to-treat): 316
patients with progression due to a new metastasis (investigator review): 52.0%
patients with progression due to increase in the size of a pre-existing lesion (investigator review): 23.5%
patients with progression due to other reasons such as death and clinical progression (investigator review): 24.5%
patients with any new metastasis observed, percentage (investigator review, intent-to-treat): (57.7) %
New metastasis site: Bone, percentage [1]: (19.6) %
New metastasis site: Breast, percentage [1]: (4.1) %
New metastasis site: CNS (brain/spine), percentage [1]: (7.9) %
New metastasis site: Chest wall, percentage [1]: (1.6) %
New metastasis site: Liver, percentage [1]: (23.4) %
New metastasis site: Lung, percentage [1]: (24.1) %
New metastasis site: Lymph nodes, percentage [1]: (17.4) %
New metastasis site: Other, percentage [1]: (16.8) %
New metastasis site: Skin, percentage [1]: (8.2) %
Median OS (patients whose disease progressed due to other events): 15.5 months
Median OS (patients with progression due to new metastasis): 12.9 months
Median OS (patients with progression due to pre-existing lesion): 17.4 months
